From US11291200B2, “Application of viable cell monitor to cryopreservation of plant cells” (EAST CHINA UNIVERSITY OF SCIENCE AND TECHNOLOGY, priority 2016, dated 2022)

What was measured:
[1] = test system: suspension cells from Siraitia grosvenorii; assay: Measurement of mitochondrial activity (TTC) after cryopreservation; assay type: cell-based; conditions: for TTC value score: per-level statistic of Table 1; for TTC value/100 mg of cells: -80° C. 24 h
Procedure: After mixing evenly, performing dark culture at 25° C. for 16 h. After the dark culture, the supernatant is removed by centrifugation and the cells are washed with distilled water three times. Adding with 4 mL of methanol and placing in a 60° C. water bath for 50 min, gently blow twice with a pipette tip until the cells have detached to colourless.

[2] = test system: suspension cells from Siraitia grosvenorii; assay: Cell viability evaluation by viable cell monitor (viable cell capacitance, viability preservation rate after cryopreservation); assay type: cell-based; conditions: for A1 (viable cell capacitance of the pre-treated cell): before freezing; for A3 (basal capacitance of the cell): cell death totally; for A2 (viable cell capacitance after resuscitation) / Viability preservation rate: -80° C. 24 h
Procedure: Taking a certain number of cells in the logarithmic growth phase for centrifugation (or sedimentation) and adding an equal amount of pre-treatment fluids after removing the supernatant. […] Pre-treated cells are centrifuged. Adding cryoprotectants after removing the supernatant and incubating at 0-4° C. and 110 rpm for 45 min. After incubation, the cells are first cooled at −20° C. for 40 min and then cooled in the −80° C. cryogenic refrigerator. Frozen cells are thawed in a water bath at 39° C., for 2-3 min. […] Mixing evenly the suspension cells and then measuring the capacitance of viable cells with a viable cell monitor. The viable cell capacitance of the pre-treated cell is denoted as A1; the viable cell capacitance after resuscitation is denoted as A2; and the basal capacitance of the cell is denoted as A3 (capacitance when cell death totally). […] The basic capacitance of cells: the cell suspension is boiled in boiling water for 1 h, and then subjected to ultrasonication for 40 min. The capacitance measured is the basic capacitance.

[3] = Siraitia grosvenorii, 45 min, 5 %
[4] = Siraitia grosvenorii, 45 min, 10 %
[5] = 0.2 M sucrose as pre-treatment agent, cryoprotectant liquid medium+10% DMSO+10% sucrose, compared with the control without pre-treatment
[6] = 0.2 M sucrose pre-treatment time 1 h, liquid medium+10% DMSO+10% sucrose
[7] = 0.2 M sucrose pre-treatment time 2 h, liquid medium+10% DMSO+10% sucrose
[8] = 0.2 M sucrose pre-treatment time 5 h, liquid medium+10% DMSO+10% sucrose
[9] = 0.2 M sucrose pre-treatment time 9 h, liquid medium+10% DMSO+10% sucrose
[10] = 0.2 M sucrose pre-treatment time 22 h, liquid medium+10% DMSO+10% sucrose
[11] = 0.2 M sucrose pre-treatment time 46 h, liquid medium+10% DMSO+10% sucrose
[12] = pre-treatment agent 0.2M, frozen medium liquid medium+10% DMSO+10% sucrose
[13] = pre-treatment agent 0.35M, frozen medium liquid medium+10% DMSO+10% sucrose
[14] = pre-treatment agent 0.5M, frozen medium liquid medium+10% DMSO+10% sucrose
[15] = 0.2 M sucrose pre-treatment time 1 h
[16] = 0.2 M sucrose pre-treatment time 2 h
[17] = 0.2 M sucrose pre-treatment time 5 h
[18] = 0.2 M sucrose pre-treatment time 9 h
[19] = 0.2 M sucrose pre-treatment time 22 h
[20] = 0.2 M sucrose pre-treatment time 46 h

**Q.** What does the source list for `C[S+](C)[O-]` [DMSO, dimethyl sulfoxide]?
**A.** TTC value score ([1]; cryoprotectant level 5%): 0.633; TTC value score ([1]; cryoprotectant level 10%): 0.792; Viability preservation rate score [2, 3]: 35.90%; Viability preservation rate score [2, 4]: 37.09%

**Q.** For `OC[C@H]1O[C@@](CO)(O[C@H]2O[C@H](CO)[C@@H](O)[C@H](O)[C@H]2O)[C@@H](O)[C@@H]1O` [Sucrose, sucrose], which “increase of mitochondrial activity (TTC value)” value [1, 5] is on record?
**A.** 36.72%

**Q.** What about the “TTC value/100 mg of cells” value [1, 6] of the same compound?
**A.** 0.195

**Q.** And the “TTC value/100 mg of cells” value [1, 7]?
**A.** 0.201

**Q.** And the “TTC value/100 mg of cells” value [1, 8]?
**A.** 0.225

**Q.** And the “TTC value/100 mg of cells” value [1, 9]?
**A.** 0.376

**Q.** What about the “TTC value/100 mg of cells” value [1, 10] of the same compound?
**A.** 0.319

**Q.** What about the “TTC value/100 mg of cells” value [1, 11] of the same compound?
**A.** 0.106

**Q.** What about the TTC value score ([1]; cryoprotectant level 5%) of the same compound?
**A.** 0.506

**Q.** And the TTC value score ([1]; cryoprotectant level 10%)?
**A.** 0.847

**Q.** What about the “TTC value/100 mg of cells” value [1, 12] of the same compound?
**A.** 0.916

**Q.** And the “TTC value/100 mg of cells” value [1, 13]?
**A.** 0.479

**Q.** And the “TTC value/100 mg of cells” value [1, 14]?
**A.** 0.232

**Q.** And the “increase of cell viability preservation rate” value [2, 5]?
**A.** 29.18%

**Q.** And the “A1 (viable cell capacitance of the pre-treated cell)” value [2, 15]?
**A.** 62.11 pF/cm

**Q.** What about the “A3 (basal capacitance of the cell)” value [2, 15] of the same compound?
**A.** 8.41 pF/cm

**Q.** What about the “A2 (viable cell capacitance after resuscitation)” value [2, 6] of the same compound?
**A.** 14.46 pF/cm

**Q.** And the “A1 (viable cell capacitance of the pre-treated cell)” value [2, 16]?
**A.** 61.68 pF/cm

**Q.** What about the “A3 (basal capacitance of the cell)” value [2, 16] of the same compound?
**A.** 8.78 pF/cm

**Q.** What about the “A2 (viable cell capacitance after resuscitation)” value [2, 7] of the same compound?
**A.** 15.63 pF/cm

**Q.** And the “A1 (viable cell capacitance of the pre-treated cell)” value [2, 17]?
**A.** 61.19 pF/cm

**Q.** And the “A3 (basal capacitance of the cell)” value [2, 17]?
**A.** 11.09 pF/cm

**Q.** What about the “A2 (viable cell capacitance after resuscitation)” value [2, 8] of the same compound?
**A.** 21.21 pF/cm

**Q.** And the “A1 (viable cell capacitance of the pre-treated cell)” value [2, 18]?
**A.** 58.51 pF/cm

**Q.** What about the “A3 (basal capacitance of the cell)” value [2, 18] of the same compound?
**A.** 11.3 pF/cm

**Q.** And the “A2 (viable cell capacitance after resuscitation)” value [2, 9]?
**A.** 25.85 pF/cm

**Q.** What about the “A1 (viable cell capacitance of the pre-treated cell)” value [2, 19] of the same compound?
**A.** 56.48 pF/cm

**Q.** And the “A3 (basal capacitance of the cell)” value [2, 19]?
**A.** 10.43 pF/cm

**Q.** And the “A2 (viable cell capacitance after resuscitation)” value [2, 10]?
**A.** 22.86 pF/cm

**Q.** And the “A1 (viable cell capacitance of the pre-treated cell)” value [2, 20]?
**A.** 45.92 pF/cm

**Q.** What about the “A3 (basal capacitance of the cell)” value [2, 20] of the same compound?
**A.** 10.94 pF/cm

**Q.** What about the “A2 (viable cell capacitance after resuscitation)” value [2, 11] of the same compound?
**A.** 14.60 pF/cm

**Q.** And the “Viability preservation rate score” value [2, 3]?
**A.** 31.15%

**Q.** What about the “Viability preservation rate score” value [2, 4] of the same compound?
**A.** 42.98%

**Q.** And the “A1 (viable cell capacitance of the pre-treated cell)” value ([2]; pre-treatment agent 0.2M)?
**A.** 42.25 pF/cm

**Q.** What about the “A3 (basal capacitance of the cell)” value ([2]; pre-treatment agent 0.2M) of the same compound?
**A.** 10.00 pF/cm

**Q.** And the “A2 (viable cell capacitance after resuscitation)” value [2, 12]?
**A.** 26.44 pF/cm

**Q.** And the “A1 (viable cell capacitance of the pre-treated cell)” value ([2]; pre-treatment agent 0.35M)?
**A.** 30.55 pF/cm

**Q.** And the “A3 (basal capacitance of the cell)” value ([2]; pre-treatment agent 0.35M)?
**A.** 8.49 pF/cm

**Q.** What about the “A2 (viable cell capacitance after resuscitation)” value [2, 13] of the same compound?
**A.** 17.01 pF/cm

**Q.** What about the “A1 (viable cell capacitance of the pre-treated cell)” value ([2]; pre-treatment agent 0.5M) of the same compound?
**A.** 24.62 pF/cm

**Q.** What about the “A3 (basal capacitance of the cell)” value ([2]; pre-treatment agent 0.5M) of the same compound?
**A.** 6.03 pF/cm

**Q.** What about the “A2 (viable cell capacitance after resuscitation)” value [2, 14] of the same compound?
**A.** 11.81 pF/cm

**Q.** What does the source list for `OC[C@H]1O[C@H](O[C@H]2O[C@H](CO)[C@@H](O)[C@H](O)[C@H]2O)[C@H](O)[C@@H](O)[C@@H]1O` [Trehalose, trehalose]?
**A.** TTC value/100 mg of cells [1, 12]: 0.767; TTC value/100 mg of cells [1, 13]: 0.841; TTC value/100 mg of cells [1, 14]: 0.224; A1 (viable cell capacitance of the pre-treated cell) ([2]; pre-treatment agent 0.2M): 41.05 pF/cm; A3 (basal capacitance of the cell) ([2]; pre-treatment agent 0.2M): 7.77 pF/cm; A2 (viable cell capacitance after resuscitation) [2, 12]: 23.40 pF/cm; Viability preservation rate [2, 12]: 46.97%; A1 (viable cell capacitance of the pre-treated cell) ([2]; pre-treatment agent 0.35M): 34.06 pF/cm; A3 (basal capacitance of the cell) ([2]; pre-treatment agent 0.35M): 7.09 pF/cm; A2 (viable cell capacitance after resuscitation) [2, 13]: 18.80 pF/cm; Viability preservation rate [2, 13]: 43.42%; A1 (viable cell capacitance of the pre-treated cell) ([2]; pre-treatment agent 0.5M): 21.20 pF/cm; A3 (basal capacitance of the cell) ([2]; pre-treatment agent 0.5M): 5.50 pF/cm; A2 (viable cell capacitance after resuscitation) [2, 14]: 10.65 pF/cm; Viability preservation rate [2, 14]: 32.80%

**Q.** With `OC[C@@H](O)[C@@H](O)[C@H](O)[C@@H](O)CO` [sorbitol] as the compound, how does the TTC value score ([1]; cryoprotectant level 5%) read?
**A.** 0.652

**Q.** What about the TTC value score ([1]; cryoprotectant level 10%) of the same compound?
**A.** 0.846

**Q.** What about the “Viability preservation rate score” value ([2]; cryoprotectant level 5%, per-level statistic of Table 1) of the same compound?
**A.** 31.20%

**Q.** What about the “Viability preservation rate score” value ([2]; cryoprotectant level 10%, per-level statistic of Table 1) of the same compound?
**A.** 40.65%
